Results on four molecules are retold here after US20260240913A1, “METHODS FOR PRODUCING STABLE HUMAN CHONDROCTYES AND THEIR USE FOR PROMOTING CARTILLAGE GROWTH AND REPAIR” (Cambridge Enterprise Limited, priority 2023, published 2026).

For assay [1], the system named is sclerotome cells. The experiment in a line: Chondrogenic differentiation of hiPSC-derived sclerotome cells (pellet cultures, chondrospheroids), staining and Incucyte imaging. The following applies: pellet cultures from all sclerotome cells; 10 ng/mL each factor; across 42 days. In kind it is cell-based, human. As to the method:
Staining Procedure. Paraffin-embedded tissues were used for immunofluorescence. Tissues were sectioned at 7 μm and heated for 1 hour at 60° C., then rehydrated in 2 washes of xylene (5 minutes), 100% ethanol (5 minutes), 95% ethanol (5 minutes), 70% ethanol (5 minutes), and distilled water (5 minute). Two different antigen retrieval methods were used: (1) for staining with COL1A1, COL2A1, COL10A1, PRG4, and hVIMENTIN, tissues were treated with 2 mg/mL hyaluronidase/PBS solution for 1 hour at 37° C., followed by a PBS wash and treatment with Pepsin (Millipore Sigma, Cat. No. R2283) for 5-10 minutes at 37° C.; (2) for staining with MGP, COMP, DPT, ACAN, and ALPL, tissues were incubated in citrate buffer (Millipore Sigma, Cat. No. C9999) for 1 hour at 70° C., followed by a 15-second wash with distilled water. Cytofix/Cytoperm buffer (BD, Cat. No. 554722) was used in some cases to enhance intracellular staining. Tissues were blocked in staining solution—PBS supplemented with 5% donkey serum (Sigma, Cat. No. D9663) and 0.5% IgePal (Sigma, Cat. No. I3021)—for 30 minutes, then stained with primary antibodies overnight at 4° C. […]
Confocal Imaging. […] Maximum intensity projections were merged in Fiji/Image J (National Institutes of Health) for image analysis and quantifications. […]

In assay [2] the test system is hBMSCs/SSCs. Description: scRNA-seq of hBMSC/SSC organoids with or without HyA-FMBs during chondrogenic differentiation. Format: cell-based, human. The following applies: day 10 of chondrogenic differentiation. As to the method: (§1) Chondrogenic Differentiation of hBMSCs/SSC-derived Organoids: To generate control organoids, 2.5×10^5 hBMSCs/SSCs (passage 2) were suspended in 1 mL chondrogenic medium—which consisted of high glucose Dulbecco's Modified Eagle Medium (DMEM) with sodium pyruvate (ThermoFisher, Cat. No. 11995073), 1% insulin-transferrin-selenium (ThermoFisher, Cat. No. 51500056), 100 nM dexamethasone, 50 ug/mL L-ascorbic acid phosphate magnesium salt n-hydrate, 1% penicillin/streptomycin, and 10 ng/mL TGFβ1 (Peprotech, Cat. No. 100-21)—in 14 mL conical tubes. […]
Control and HyA-FMB organoids from days 1-10 and ectopic HyA-FMB transplant were digested in high-glucose DMEM containing 0.2% collagenase II (ThermoFisher, Cat. No. 17101015), 0.1% hyaluronidase (Merck, Cat. No. H3506), and 0.1% dispase (Sigma, Cat. No. D4693) with gentle pipetting every 20-30 minutes. […] Only samples with >95% viability were submitted for single-cell capture, as measured by Vi-CELL BLU Cell Viability Analyzer (Beckman Coulter). […] Reads were mapped using GRCh38-2020-A reference transcriptome, and libraries were processed using Cell Ranger version 7.0. […] Differentially expressed genes, which represented at least 25% of each cluster (p<0.05), were analyzed using gProfiler (biit.cs.ut.ee/gprofiler/gost) for functional enrichment analysis and cell cluster annotation.

Assay [3] concerns hBMSC/SSC organoids. Description: Pan-ID inhibition in hBMSC/SSC organoids during chondrogenic differentiation, qRT-PCR of chondro-osteogenic genes. In kind it is cell-based, human. As to the method: as §1, with “tubes. The same process was employed to generate HyA-FMB organoids, except each conical tube contained 3 mg of pre-sterilized HyA-FMBs (70% ethanol washes overnight), which were constructed according to established protocols (Kuznetsov et al., Stem Cells Translational Medicine, 26, 586-592. //doi.org/10.1016/j.joca.2018.02.293, 2019).” for “tubes.”
qRT-PCR. […] Lysates were processed according to Qiagen's RNeasy Mini Kit with DNAse treatment (Cat. No. 74004), and RNA quality and concentration was measured using NanoDrop. cDNA was constructed using SuperScript III First-Strand Synthesis SuperMix (ThermoFisher, Cat. No. 11752050) with no Reverse Transcriptase added to negative controls. Samples were measured in triplicate using the Quantstudio 6 Flex system (Applied Biosystems), and ΔΔCT values were calculated using GAPDH as internal controls.
A general note: Real-time PCR tracks product formation cycle by cycle.

Assay [4] has as its system hBMSC/SSC. The following applies: chronic BMP blockade; Franco et al. 2022; cited from earlier work.
The test system of assay [5] is Hedgehog. The following applies: according to Wu et al. 2021; cited from earlier work.

Take “TGFβ1: transforming growth factor β1, recombinant growth factor in chondrogenic medium”: the “matrix protein expression in sclerotome-derived pellet cultures” value in assay [1] was “stable COL1A1 and COL2A1 expression across 42 days, with sporadic ACAN and minimal PRG4 expression”. The “IBSP+ cell populations” value in assay [2] is on record as “About 90%”.

For the molecule `CCC(=O)N(CCC(c1ccc2c(c1)OCO2)c1ccccc1OC)Cc1ccccc1` (stereo not drawn) [AGX51], the “RUNX2, IBSP and COL1A1 (osteogenic) gene expression” value in assay [3] (30 μM AGX51 every 2-3 days for 28 days, qRT-PCR at days 3, 7, 14, 21, 28, versus vehicle) was “initial decrease in RUNX2 and IBSP expression at days 3 and 7, followed by an increase in RUNX2, IBSP, and COL1A1 expression from days 21-28”. In assay [3] (30 μM AGX51 for 28 days, qRT-PCR), the “chondrogenic gene expression (SOX9, ACAN, and COL2A1)” value is recorded as “initially decreased, but stabilized”.

With `Cl.c1ccc2c(-c3cnn4cc(-c5ccc(N6CCNCC6)cc5)cnc34)ccnc2c1` [LDN 193189, 4-(6-(4-(piperazin-1-yl)phenyl)pyrazolo[1,5-a]pyrimidin-3-yl)quinoline hydrochloride], in assay [4], the hypertrophic expression entry was “does not prevent hypertrophic expression”.

Take `c1ccc2c(Oc3nc(Nc4ccc(N5CCOCC5)cc4)c4ncn(C5CCCCC5)c4n3)cccc2c1` [purmorphamine]: in assay [5], the “suitability as Hedgehog agonist for sclerotome induction” value was “effective substitute for the commercially-synthesized Hedgehog agonist 21K”.
